According to patent US6461997B1, “Triazole sulfones having herbicidal activity” (Monsanto Technology LLC, priority 1999, dated 2002):

Tests used:
[1] = system: AMARE (redroot pigweed); assay: Pre-plant incorporated (PPI) herbicidal activity, warm season; type: in vivo, Amaranthus retroflexus
Procedure: (§1) In another set of tests, the pre-plant incorporated (PPI) activity of compounds of this invention was evaluated on the same species as for the pre-emergence tests described above. In the PPI tests the following procedure, designed to simulate PPI application, was used.
(§2) A pre-prepared topsoil mixture (described above) was placed in a pot and compacted to a depth of 1.0 to 1.25 cm from the top of the pot. Seeds of each of several monocotyledonous and dicotyledonous annual plant species were placed on top of the soil. A sufficient quantity of soil to cover the seeds and level fill the pot was weighed into an open container. A known amount of the test compound was dissolved or suspended in an organic solvent and applied by spraying to this cover soil. The cover soil was thoroughly mixed to distribute the test compound throughout the cover soil, and was then applied as a cover layer over the seeds. Untreated soil was used as a cover layer for control pots. After treatment the plants were placed in a greenhouse where they received 0.64 cm of overhead irrigation. All subsequent watering consisted of a light overhead mist and/or subirrigation as needed for germination and growth. Tables 9 and 10 below relate to warm season plant species which were placed after pre-emergence treatment in a greenhouse with a 30/21° C. day/night temperature regime. Tables 11 and 12 below relates to cool season plant species placed after pre-emergence treatment in a greenhouse or growth chamber with an 18/13° C. day/night temperature regime. Only the compounds of Examples 1, 6, 8, 11, 13 and 15-20 were included in PPI tests.
(§3) Approximately 14 days after planting and treating, the plants were observed and herbicidal efficacy recorded as percent inhibition by comparison with untreated plants.

[2] = system: POLCO (wild buckwheat); assay: Pre-emergence herbicidal activity, cool season; type: in vivo, Polygonum convolvulus; details: lowest tested rate with 80% or greater inhibition; rates 300, 100, 30, 10 g/ha; about 14 days
Outline: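 Pre-emergence soil-surface spray; rates 300/100/30/10 g/ha; acetone:water 50:50 diluent. Warm-season species (PANMI, DIGSA) grown at 30/21 °C, cool-season species (ALOMY, POLCO) at 18/13 °C. Inhibition scored ~14 d after treatment versus untreated controls → GR80.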

[3] = system: POLCO (wild buckwheat); assay: Pre-plant incorporated (PPI) herbicidal activity, cool season; type: in vivo, Polygonum convolvulus
Procedure: as §1, §2, §3

[4] = system: wheat (TRZAW); assay: Selectivity test, PPI, cool season crop; type: in vivo, Triticum aestivum; details: Triticum aestivum, PPI application, read-out: Percent inhibition TRZAW
Procedure: as §2, §3
(§4) Additional pre-emergence and PPI tests were conducted by the procedures described above, on warm and cool season weed species in the presence of crop species, to assess herbicidal selectivity. Crop species included in warm season tests were corn (Zea mays, ZEAMX), rice (Oryza sativa, ORYSA) and soybean (Glycine max, GLYMX). Crop species included in cool season tests were wheat (Triticum aestivum, TRZAW), barley (Hordeunm vulgare, HORVX) and oilseed rape (Brassica napus, BRSNS).
(§5) Tables 15 and 16 relate to pre-emergence and PPI tests respectively on warm season species. Table 17 relates to pre-emergence tests on cool season species.

[5] = system: oilseed rape (BRSNS); assay: Selectivity test, PPI, cool season crop; type: in vivo, Brassica napus; details: Brassica napus, PPI application, read-out: Percent inhibition BRSNS
Procedure: as §2, §3, §4, §5

[6] = system: ALOMY (blackgrass); assay: Pre-plant incorporated (PPI) herbicidal activity, cool season; type: in vivo, Alopecurus myosuroides
Procedure: as §1, §2, §3

[7] = system: SASKR (russian thistle); assay: Pre-emergence herbicidal activity, cool season; type: in vivo, Salsola kali; details: lowest tested rate with 80% or greater inhibition; rates 300, 100, 30, 10 g/ha; about 14 days
Outline: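 GR80 values derive from percent inhibition relative to untreated plants, read roughly 14 days after sowing and pre-emergence soil-surface treatment (compound in 50:50 acetone/water; rates typically 10, 30, 100, 300 g/ha). Warm-season weeds grew at 30/21° C day/night, cool-season ones at 18/13° C; an asterisk marks activity without reaching 80% at the highest rate.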

[8] = system: VERPE (creeping speedwell); assay: Pre-plant incorporated (PPI) herbicidal activity, cool season; type: in vivo, Veronica persicaria; details: pre-plant incorporated; lowest tested rate with 80% or greater inhibition; about 14 days
Procedure: as §1, §2, §3

[9] = system: ECHCG (barnyardgrass); assay: Pre-plant incorporated (PPI) herbicidal activity, warm season; type: in vivo, Echinochloa crus-galli
Procedure: as §1, §2, §3

[10] = system: XANST (cocklebur); assay: as above; type: in vivo, Xanthium strumarium; details: Xanthium strumarium, PPI application, read-out: Percent inhibition XANST
Procedure: as §1, §2, §3

[11] = system: PANDI (fall panicum); assay: as above; type: in vivo, Panicum dichotomiflorum; details: pre-plant incorporated; lowest tested rate with 80% or greater inhibition; about 14 days
Procedure: as §1, §2, §3

[12] = pre-plant incorporated, lowest tested rate with 80% or greater inhibition, about 14 days

Work on `CCN(CC)C(=O)n1cnc(S(=O)(=O)C(F)(F)Br)n1` [Example 1, 3-(bromodifluoromethylsulfonyl)-1-(N,N-diethylcarbamoyl)-1,2,4-triazole] yielded an inhibition at 10 g/ha ([1]; Amaranthus retroflexus, PPI application, 10 g/ha, read-out: Percent inhibition AMARE) of 0%, an inhibition at 30 g/ha ([1]; Amaranthus retroflexus, PPI application, 30 g/ha, read-out: Percent inhibition AMARE) of 60% and an inhibition at 100 g/ha ([1]; Amaranthus retroflexus, PPI application, 100 g/ha, read-out: Percent inhibition AMARE) of 80%. For the same compound, the inhibition at 300 g/ha ([1]; Amaranthus retroflexus, PPI application, 300 g/ha, read-out: Percent inhibition AMARE) was 100%, the inhibition at 900 g/ha ([1]; Amaranthus retroflexus, PPI application, 900 g/ha, read-out: Percent inhibition AMARE) was 100% and the “PPI activity (GR80) AMARE” value ([1]; pre-plant incorporated, GR80 = lowest tested rate with 80% or greater inhibition, approx. 14 days after treating, 30/21° C.) was 30 g/ha. The “Pre-emergence activity GR80, POLCO” value [2] was “[empty]”, the inhibition at 30 g/ha ([3]; Fallopia convolvulus, weed, PPI application, 30 g/ha, read-out: Percent inhibition POLCO) was 30% and the inhibition at 100 g/ha ([3]; Fallopia convolvulus, weed, PPI application, 100 g/ha, read-out: Percent inhibition POLCO) was 90%. For the same compound, the inhibition at 300 g/ha ([3]; Fallopia convolvulus, weed, PPI application, 300 g/ha, read-out: Percent inhibition POLCO) was 100%, the inhibition at 900 g/ha ([3]; Fallopia convolvulus, weed, PPI application, 900 g/ha, read-out: Percent inhibition POLCO) was 100% and the “PPI activity GR80, POLCO” value [3, 12] was “* (activity observed, at least at highest rate, but <80% inhibition)”. The inhibition at 30 g/ha ([4]; 30 g/ha) was 0%, the inhibition at 100 g/ha ([4]; 100 g/ha) was 0% and the inhibition at 300 g/ha ([4]; 300 g/ha) was 10%. The inhibition at 900 g/ha ([4]; 900 g/ha) was 30%, the inhibition at 30 g/ha ([5]; 30 g/ha) was 60% and the inhibition at 100 g/ha ([5]; 100 g/ha) was 20%. For the same compound, the inhibition at 300 g/ha ([5]; 300 g/ha) was 99%, the inhibition at 900 g/ha ([5]; 900 g/ha) was 100% and the inhibition at 30 g/ha ([6]; Alopecurus myosuroides, weed, PPI application, 30 g/ha, read-out: Percent inhibition ALOMY) was 80%. It also gave an inhibition at 100 g/ha ([6]; Alopecurus myosuroides, weed, PPI application, 100 g/ha, read-out: Percent inhibition ALOMY) of 99%, an inhibition at 300 g/ha ([6]; Alopecurus myosuroides, weed, PPI application, 300 g/ha, read-out: Percent inhibition ALOMY) of 100% and an inhibition at 900 g/ha ([6]; Alopecurus myosuroides, weed, PPI application, 900 g/ha, read-out: Percent inhibition ALOMY) of 100%. The “PPI activity GR80, ALOMY” value [6, 12] was 100 g/ha, the “Pre-emergence activity GR80, SASKR” value [7] was 300 g/ha and the “PPI activity GR80, VERPE” value [8] was 30 g/ha. The inhibition at 10 g/ha ([9]; Echinochloa crus-galli, PPI application, 10 g/ha, read-out: Percent inhibition ECHCG) was 0%, the inhibition at 30 g/ha ([9]; Echinochloa crus-galli, PPI application, 30 g/ha, read-out: Percent inhibition ECHCG) was 20% and the inhibition at 100 g/ha ([9]; Echinochloa crus-galli, PPI application, 100 g/ha, read-out: Percent inhibition ECHCG) was 99%. The inhibition at 300 g/ha ([9]; Echinochloa crus-galli, PPI application, 300 g/ha, read-out: Percent inhibition ECHCG) was 100%, the inhibition at 900 g/ha ([9]; Echinochloa crus-galli, PPI application, 900 g/ha, read-out: Percent inhibition ECHCG) was 100% and the “PPI activity GR80, ECHCG” value [9, 12] was 30 g/ha. It also gave an inhibition at 10 g/ha ([10]; 10 g/ha) of 0%, an inhibition at 30 g/ha ([10]; 30 g/ha) of 0% and an inhibition at 100 g/ha ([10]; 100 g/ha) of 0%. For the same compound, the inhibition at 300 g/ha ([10]; 300 g/ha) was 0%, the inhibition at 900 g/ha ([10]; 900 g/ha) was 0% and the “PPI activity GR80, PANDI” value [11] was 100 g/ha.
